{
  "source": "patent US20170128720A1",
  "about": "“METHODS AND DEVICES FOR MODULATING GENE EXPRESSION AND ENZYME ACTIVITY” (VOMARIS INNOVATIONS, INC, priority 2014, published 2017)",
  "key": {"HUVEC cells [1]": {"tested_on": "HUVEC cells", "assay": "EF-induced reorientation of endothelial cells, drug inhibition (orientation index Oi)", "type": "cell-based", "description": "HUVEC cells were seeded in a trough formed by two parallel (1 cm apart) strips of glass coverslip (No. 1, length of 22 mm) fixed to the base of the dish with silicone grease. Scratch lines were made perpendicular to the long axis of the chamber with a fine sterile needle and used as reference marks for directed cell migration. Cells were incubated for 24-48 hours (37° C., 5% CO2) before a roof coverslip was applied and sealed with silicone grease. The final dimensions of the chamber, through which current was passed, were 22×10×0.2 mm. Agar-salt bridges not less than 15 cm long were used to connect silver/silver-chloride electrodes in beakers of Steinberg's solution (58 mM NaCl, 0.67 mM KCl, 0.44 mM Ca(NO3)2, 1.3 mM MgSO4, 4.6 mM Trizma base, pH 7.8-8.0), to pools of excess culture medium at either side of the chamber. Field strengths were measured directly at the beginning of, the end of and during each experiment. No fluctuations in field strength were observed. […] The same concentration of drug was present during EF (electric field) exposure in a CO2 incubator.\nA series of images was taken with an image analyser immediately before EF exposure and at 4, 8 and 24 hours of EF exposure. Cell orientation was quantified as an orientation index (Oi), which is defined as Oi=cos 2(α), where α is the angle formed by the long axis of a cell with a line drawn perpendicular to the field lines. A cell with its long axis parallel to the vector of the EF will have an Oi of −1, and a cell with its long axis exactly perpendicular to the EF vector will have an Oi of +1. A randomly oriented population of cells will have an average Oi {defined as [Σn cos 2(α)]÷n} of 0. The significance of this two-dimensional orientation distribution against randomness was calculated using Rayleigh's distribution. A long:short axis ratio was calculated for assessment of elongation."}, "HUVEC cells [2]": {"tested_on": "HUVEC cells", "assay": "EF-induced elongation of endothelial cells, drug inhibition (long:short axis ratio)", "type": "cell-based", "settings": "for long:short axis ratio / long axis in EF-treated cells: drug 50 μM", "procedure": "HUVEC cells were seeded in a trough formed by two parallel (1 cm apart) strips of glass coverslip (No. 1, length of 22 mm) fixed to the base of the dish with silicone grease. Scratch lines were made perpendicular to the long axis of the chamber with a fine sterile needle and used as reference marks for directed cell migration. Cells were incubated for 24-48 hours (37° C., 5% CO2) before a roof coverslip was applied and sealed with silicone grease. The final dimensions of the chamber, through which current was passed, were 22×10×0.2 mm. Agar-salt bridges not less than 15 cm long were used to connect silver/silver-chloride electrodes in beakers of Steinberg's solution (58 mM NaCl, 0.67 mM KCl, 0.44 mM Ca(NO3)2, 1.3 mM MgSO4, 4.6 mM Trizma base, pH 7.8-8.0), to pools of excess culture medium at either side of the chamber. Field strengths were measured directly at the beginning of, the end of and during each experiment. No fluctuations in field strength were observed. […] (50 μM), the Rho kinase inhibitor Y27632 (50 μM), both Akt and Rho kinase inhibitors (10 μM each) or latrunculin (50 nM) for 1 hour before EF stimulation. The same concentration of drug was present during EF (electric field) exposure in a CO2 incubator.\nA series of images was taken with an image analyser immediately before EF exposure and at 4, 8 and 24 hours of EF exposure. Cell orientation was quantified as an orientation index (Oi), which is defined as Oi=cos 2(α), where α is the angle formed by the long axis of a cell with a line drawn perpendicular to the field lines. A cell with its long axis parallel to the vector of the EF will have an Oi of −1, and a cell with its long axis exactly perpendicular to the EF vector will have an Oi of +1. […] The significance of this two-dimensional orientation distribution against randomness was calculated using Rayleigh's distribution. A long:short axis ratio was calculated for assessment of elongation.\nHUVEC cells elongated dramatically in an EF. […] We quantified the elongation of the cells using a long:short axis ratio. […]"}, "[3]": {"settings": "drug 50 μM, 1 hour before and during EF"}},
  "note": "Like-named read-outs stand apart in the source and are kept apart here.",
  "data": [
    {"molecule": "C[C@@H](N)[C@H]1CC[C@H](C(=O)Nc2ccncc2)CC1", "note": "[Y27632]", "values": [
      {"measurement": "orientation index Oi", "setting": "HUVEC cells [1]; 10 μM", "result": "0.55±0.05"},
      {"measurement": "orientation response in EF", "setting": "HUVEC cells [1]; 10 μM, 20 μM and 50 μM", "result": "decreased the orientation response significantly"},
      {"measurement": "orientation index Oi", "setting": "HUVEC cells [1]; 20 μM", "result": "0.45±0.05"},
      {"measurement": "orientation index Oi", "setting": "HUVEC cells [1]; 50 μM", "result": "0.24±0.05"},
      {"measurement": "long:short axis ratio / long axis in EF-treated cells", "setting": "HUVEC cells [2]", "result": "significantly decreased"}
    ]},
    {"molecule": "C/C1=C/C(=O)O[C@@H]2C[C@@H](CC[C@H](C)/C=C\\C=C\\CC1)O[C@@](O)([C@@H]1CSC(=O)N1)C2", "note": "[Latrunculin A]", "values": [
      {"measurement": "orientation response in EF", "setting": "HUVEC cells [1]; latrunculin 50 nM", "result": "suppressed the orientation response significantly"},
      {"measurement": "EF-induced elongation response", "setting": "HUVEC cells [2]; latrunculin 50 nM", "result": "completely abolished"}
    ]},
    {"molecule": "COc1cc2ncnc(Nc3ccc(Cl)cc3F)c2cc1OC", "note": "[VEGFR inhibitor, 4-[(4′-chloro-2′-fluoro)phenylamino]-6,7-dimethoxyquinazoline]", "values": [
      {"measurement": "reorientation / orientation response of cells in an EF", "setting": "HUVEC cells [1]; [3]", "result": "completely abolished"}
    ]},
    {"molecule": "1-L-6-hydroxymethyl-chiro-inositol 2-[(R)-2-O-methyl-3-O-octadecylcarbonate] [Akt inhibitor]", "values": [
      {"measurement": "reorientation / orientation response of cells in an EF", "setting": "HUVEC cells [1]; [3]", "result": "significantly decreased"},
      {"measurement": "long:short axis ratio / long axis in EF-treated cells", "setting": "HUVEC cells [2]", "result": "significantly decreased"}
    ]},
    {"molecule": "N#CC(=C(/N)Sc1ccccc1N)/C(C#N)=C(\\N)Sc1ccccc1N", "note": "[U0126]", "values": [
      {"measurement": "orientation index Oi", "setting": "HUVEC cells [1]", "result": "0.33±0.03"},
      {"measurement": "reorientation / orientation response of cells in an EF", "setting": "HUVEC cells [1]", "result": "decreased the orientation to a similar extent"}
    ]}
  ]
}
